Measured values from ChEMBL document CHEMBL3885881, “DrugMatrix”.

Species: Rattus norvegicus
Assay: DrugMatrix - Regimen: Daily Repeat
Assay type: toxicity, organism-based, Sprague-Dawley
Design: regimen Daily Repeat, gender Male, age 6-8 weeks
Conditions: in vivo, po, route oral GAVAGE, vehicle 100 % WATER; for ABSOLUTE BASOPHIL / ABSOLUTE EOSINOPHIL / ABSOLUTE LYMPHOCYTE / ABSOLUTE MONOCYTE / ABSOLUTE SEGMENTED NEUTROPHIL / BASOPHIL / EOSINOPHIL / ERYTHROCYTE COUNT / HEMATOCRIT / HEMOGLOBIN / LEUKOCYTE COUNT / LYMPHOCYTE / MEAN CORPUSCULAR HEMOGLOBIN / MEAN CORPUSCULAR HEMOGLOBIN CONCENTRATION / MEAN CORPUSCULAR VOLUME / MONOCYTE / NEUTROPHIL / NUCLEATED RED BLOOD CELLS / PLATELET COUNT: tissue Blood; for ALANINE AMINOTRANSFERASE / ALBUMIN / ALKALINE PHOSPHATASE / ASPARTATE AMINOTRANSFERASE / BLOOD UREA NITROGEN / CARBON DIOXIDE / CHLORIDE / CHOLESTEROL / CREATINE PHOSPHOKINASE / CREATININE / GLUCOSE / LACTATE DEHYDROGENASE / LIPASE / PHOSPHORUS / POTASSIUM / SODIUM / TOTAL BILIRUBIN / TOTAL PROTEIN / URIC ACID: tissue Plasma
[1] = 0 mg/kg, 72 h, dose level Control, time 3 day
[2] = 0 mg/kg, 120 h, dose level Control, time 5 day
[3] = 120 mg/kg, 72 h, dose level Low, time 3 day

Cc1onc(-c2ccccc2Cl)c1C(=O)N[C@@H]1C(=O)N2[C@@H]1SC(C)(C)[C@@H]2C(=O)O [CLOXACILLIN]
ABSOLUTE BASOPHIL [1]: 0 CELLS/uL | ABSOLUTE EOSINOPHIL [1]: 40 CELLS/uL | ABSOLUTE LYMPHOCYTE [1]: 13599.5 CELLS/uL | ABSOLUTE MONOCYTE [1]: 239.33 CELLS/uL | ABSOLUTE SEGMENTED NEUTROPHIL [1]: 1021.17 CELLS/uL | BASOPHIL [1]: 0% | EOSINOPHIL [1]: 0.33% | ERYTHROCYTE COUNT [1]: 5.71 x10E6/uL | HEMATOCRIT [1]: 36.35% | HEMOGLOBIN [1]: 14.05 G/DL | LEUKOCYTE COUNT [1]: 14.9 x10E3/uL | LYMPHOCYTE [1]: 91% | MEAN CORPUSCULAR HEMOGLOBIN [1]: 24.62 pg | MEAN CORPUSCULAR HEMOGLOBIN CONCENTRATION [1]: 38.65 G/DL | MEAN CORPUSCULAR VOLUME [1]: 63.7 fL | MONOCYTE [1]: 1.5% | NEUTROPHIL [1]: 7.17% | NUCLEATED RED BLOOD CELLS [1]: 0.33 /100WBC | PLATELET COUNT [1]: 1225.5 x10E3/uL | ALANINE AMINOTRANSFERASE [1]: 48.5 u/L | ALBUMIN [1]: 4.18 G/DL | ALKALINE PHOSPHATASE [1]: 390.83 u/L | ASPARTATE AMINOTRANSFERASE [1]: 89 u/L | BLOOD UREA NITROGEN [1]: 14.83 mg/dL | CARBON DIOXIDE [1]: 24.83 mmol/L | CHLORIDE [1]: 100.83 MEQ/L | CHOLESTEROL [1]: 72.5 mg/dL | CREATINE PHOSPHOKINASE [1]: 503 u/L | CREATININE [1]: 0.2 mg/dL | GLUCOSE [1]: 163 mg/dL | LACTATE DEHYDROGENASE [1]: 316.83 u/L | LIPASE [1]: 9.83 u/L | PHOSPHORUS [1]: 11.57 mg/dL | POTASSIUM [1]: 6.16 MEQ/L | SODIUM [1]: 142.62 MEQ/L | TOTAL BILIRUBIN [1]: 0.2 mg/dL | TOTAL PROTEIN [1]: 5.8 G/DL | URIC ACID [1]: 1.65 mg/dL | ABSOLUTE BASOPHIL [2]: 0 CELLS/uL | ABSOLUTE EOSINOPHIL [2]: 21 CELLS/uL | ABSOLUTE LYMPHOCYTE [2]: 14288.5 CELLS/uL | ABSOLUTE MONOCYTE [2]: 205.33 CELLS/uL | ABSOLUTE SEGMENTED NEUTROPHIL [2]: 968.5 CELLS/uL | BASOPHIL [2]: 0% | EOSINOPHIL [2]: 0.17% | ERYTHROCYTE COUNT [2]: 5.83 x10E6/uL | HEMATOCRIT [2]: 36.53% | HEMOGLOBIN [2]: 14.4 G/DL | LEUKOCYTE COUNT [2]: 15.48 x10E3/uL | LYMPHOCYTE [2]: 92% | MEAN CORPUSCULAR HEMOGLOBIN [2]: 24.72 pg | MEAN CORPUSCULAR HEMOGLOBIN CONCENTRATION [2]: 39.43 G/DL | MEAN CORPUSCULAR VOLUME [2]: 62.68 fL | MONOCYTE [2]: 1.33% | NEUTROPHIL [2]: 6.5% | NUCLEATED RED BLOOD CELLS [2]: 0.17 /100WBC | PLATELET COUNT [2]: 1280.5 x10E3/uL | ALANINE AMINOTRANSFERASE [2]: 50 u/L | ALBUMIN [2]: 4.28 G/DL | ALKALINE PHOSPHATASE [2]: 380.17 u/L | ASPARTATE AMINOTRANSFERASE [2]: 82.67 u/L | BLOOD UREA NITROGEN [2]: 15.33 mg/dL | CARBON DIOXIDE [2]: 27.17 mmol/L | CHLORIDE [2]: 100.33 MEQ/L | CHOLESTEROL [2]: 60.67 mg/dL | CREATINE PHOSPHOKINASE [2]: 441.5 u/L | CREATININE [2]: 0.16 mg/dL | GLUCOSE [2]: 146 mg/dL | LACTATE DEHYDROGENASE [2]: 189.33 u/L | LIPASE [2]: 9.17 u/L | PHOSPHORUS [2]: 11.67 mg/dL | POTASSIUM [2]: 6.86 MEQ/L | SODIUM [2]: 142.33 MEQ/L | TOTAL BILIRUBIN [2]: 0.2 mg/dL | TOTAL PROTEIN [2]: 6.12 G/DL | URIC ACID [2]: 1.82 mg/dL | ABSOLUTE BASOPHIL [3]: 0 CELLS/uL | ABSOLUTE EOSINOPHIL [3]: 0 CELLS/uL | ABSOLUTE LYMPHOCYTE [3]: 13421.33 CELLS/uL | ABSOLUTE MONOCYTE [3]: 92.33 CELLS/uL | ABSOLUTE SEGMENTED NEUTROPHIL [3]: 1186.33 CELLS/uL | BASOPHIL [3]: 0% | EOSINOPHIL [3]: 0% | ERYTHROCYTE COUNT [3]: 5.89 x10E6/uL | HEMATOCRIT [3]: 36% | HEMOGLOBIN [3]: 13.83 G/DL | LEUKOCYTE COUNT [3]: 14.7 x10E3/uL | LYMPHOCYTE [3]: 90.67% | MEAN CORPUSCULAR HEMOGLOBIN [3]: 23.47 pg | MEAN CORPUSCULAR HEMOGLOBIN CONCENTRATION [3]: 38.4 G/DL | MEAN CORPUSCULAR VOLUME [3]: 61.07 fL | MONOCYTE [3]: 0.67% | NEUTROPHIL [3]: 8.67% | NUCLEATED RED BLOOD CELLS [3]: 0 /100WBC | PLATELET COUNT [3]: 1271.67 x10E3/uL | ALANINE AMINOTRANSFERASE [3]: 68 u/L | ALBUMIN [3]: 4.1 G/DL | ALKALINE PHOSPHATASE [3]: 359 u/L | ASPARTATE AMINOTRANSFERASE [3]: 111 u/L | BLOOD UREA NITROGEN [3]: 15.33 mg/dL | CARBON DIOXIDE [3]: 23 mmol/L | CHLORIDE [3]: 103 MEQ/L | CHOLESTEROL [3]: 79.33 mg/dL | CREATINE PHOSPHOKINASE [3]: 603.33 u/L | CREATININE [3]: 0.17 mg/dL | GLUCOSE [3]: 150.33 mg/dL | LACTATE DEHYDROGENASE [3]: 726 u/L | LIPASE [3]: 9 u/L | PHOSPHORUS [3]: 13.1 mg/dL | POTASSIUM [3]: 6.07 MEQ/L | SODIUM [3]: 143.5 MEQ/L | TOTAL BILIRUBIN [3]: 0.17 mg/dL | TOTAL PROTEIN [3]: 5.77 G/DL | URIC ACID [3]: 1.8 mg/dL
